Test results as given in US20090076029A1 (Palatin Technologies, Inc., priority 2007, published 2009).
pEC50: −log10 of the molar value. Values joined by “and” are separate entries in the source; they are usually repeats but may differ in a detail not shown here. Equal entries are not always repeated. Where two headings read alike, the source gives them in different places.

Tests used:
hMC3-R = target: T1, hMC3-R; experiment: Competitive inhibition assay using [I125]-NDP-α-MSH, hMC3-R membranes; type: binding, human; conditions: read-out: Ki (nM) (NDP-α-MSH) MC3-R
T1 construct: expressed in transfected cells; host or cells: HEK-293
Protocol: (§1) Competitive inhibition assay using [1125]-NDP-α-MSH. A competitive inhibition binding assay was conducted using membranes prepared from HEK-293 cells transfected to express hMC3-R, hMC4-R or hMC5-R, and from B-16 mouse melanoma cells (containing MC1-R) using 0.2 to 0.4 nM [I^125]-NDP-α-MSH (New England Nuclear) in 50 mM HEPES buffer containing 1 mM MgCl2, 2 mM CaCl2, and 5 mM KCl, at pH 7.2. In certain experiments, HEK-293 cells transfected to express hMC1-R were also employed. The assay tube also contained a chosen concentration of the test compound of this invention, typically a 1 μM concentration, for determining inhibition of the binding of [^1125]-NDP-α-MSH to its receptor. Non-specific binding was measured by inhibition of binding of [I^125]-NDP-α-MSH in the assay with the presence of 1 μM α-MSH.
(§2) The assay mixture was incubated for 90 minutes at room temperature, then filtered and the membranes washed three times with ice cold buffer. The filter was dried and counted in a gamma counter for remaining radioactivity bound to the membranes. 100% specific binding was defined as the difference in radioactivity (cpm) bound to cell membranes in the absence and presence of 1 μM α-MSH. The cpm obtained in presence of test compounds were normalized with respect to 100% specific binding to determine the percent inhibition of [125]-NDP-α-MSH binding. Each assay was conducted in triplicate and the actual mean values are described, with results less than 0% reported as 0%.

hMC4-R [1] = target: T2, hMC4-R; experiment: Competitive inhibition assay using [I125]-NDP-α-MSH, hMC4-R membranes; type: binding, human; conditions: for attenuation of binding of α-MSH and AgRP to MC4-R: both ligands (NDP-α-MSH and AgRP), summary
T2 construct: expressed in transfected cells; host or cells: HEK-293
Protocol: as §1, §2

hMC5-R = target: T3, hMC5-R; experiment: Competitive inhibition assay using [I125]-NDP-α-MSH, hMC5-R membranes; type: binding, human; conditions: read-out: Ki (nM) (NDP-α-MSH) MC5-R
T3 construct: expressed in transfected cells; host or cells: HEK-293
Protocol: as §1, §2

hMC4-R [2] = test system: T2, hMC4-R; type: binding, human; conditions: for Inhibition at 1 μM (AgRP) MC4-R: 1 μM compound
Protocol: Competitive binding assay using [I^125]-AgRP (83-132). Competitive binding studies using [I^125]-AgRP (83-132) were carried out on membranes isolated from cells expressing hMC4-R. The assay was performed in 96 well GF/B Millipore multiscreen filtration plates (MAFB NOB10) pre-coated with 0.5% bovine serum albumin (Fraction V). The assay mixture contained 25 mM HEPES buffer (pH 7.5) with 100 mM NaCl, 2 mM CaCl2, 2 mM MgCl2, 0.3 mM 1,10-phenanthroline, 0.5% bovine serum albumin, cell membranes, radioligand [I^125]-AgRP (83-132) (NEN), and increasing concentrations of compounds in a total volume of 200 μL. Binding was measured at radioligand concentrations of 0.2 nM. After incubating for 1 hour at 37° C., the reaction mixture was filtered and washed with an assay buffer containing 500 mM NaCl. The dried discs were punched out from the plate and counted on a gamma counter. Care was taken to limit the specific binding of the ligand to an amount not exceeding 10% of the counts added to the reaction mixture. Data were analyzed using the Prism Graph-Pad curve fitting software.

hMC4-R [3] = test system: T2, hMC4-R; experiment: cAMP functional assay in HEK-293 cells expressing MC4-R (agonist, neutral antagonist/Schild); type: cell-based, human; conditions: for functional status (pAg, Ag, Antag, Inactive) / pEC50: Table 1; for intrinsic activity at MC4-R: NDP-α-MSH maximal stimulation = 1.0; for functional status at MC4-R: mostly at 1 μM
Protocol: General method for EC50 determination in functional activity assay. Functional evaluation of compounds at melanocortin receptors was performed by measuring the accumulation of intracellular cAMP in HEK-293 cells expressing hMC3-R, hMC4-R or hMC5-R, and in B-16 mouse melanoma cells expressing MC1-R. Cells suspended in Earle's Balanced Salt Solution containing 10 mM HEPES (pH 7.5), 5 mM MgCl2, 1 mM glutamine, 0.1% albumin and 0.6 mM 3-isobutyl-1-methyl-xanthine, a phosphodiesterase inhibitor, were plated in 96 well plates at a density of 0.5×10^5 cells per well. Cells were incubated with the test compounds in the presence or absence of α-MSH for 1 hour at 37° C. cAMP levels in the cell lysates were measured using an EIA kit (Amersham). Data analysis and EC50 values were determined using nonlinear regression analysis with Prism Graph-Pad software.
Functional status. The agonist/antagonist status with respect to MC1-R, MC-3R, MC4-R and MC5-R of certain compounds of the invention was determined.
Assay for agonist. Evaluation of the molecules to elicit a functional response in HEK-293 cells expressing MC4-R was accomplished by measuring the accumulation of intracellular cAMP following treatment. Confluent HEK-293 cells expressing MC4-R were detached by enzyme free cell suspension buffer. Cells were suspended in Earle's Balanced Salt Solution containing 10 mM HEPES (pH 7.5), 1 mM MgCl2, 1 mM glutamine, 0.5% albumin and 0.3 mM 3-isobutyl-1-methyl-xanthine (IBMX), a phosphodiesterase inhibitor. The cells were plated in 96 well plates at a density of 0.5×10^5 cells per well and pre-incubated for 30 minutes. The cells were then challenged with the test compounds dissolved in DMSO at a concentration range of 0.05-5000 nM in a total assay volume of 200 μL for 1 hour at 37° C. The concentration of DMSO was always held at 1% in the assay mixture. NDP-α-MSH was used as the reference agonist. At the end of the incubation period the cells were disrupted by the addition of 50 μL of lysis buffer from a cAMP EIA kit (Amersham). Complete rupture of the cells was obtained by pipetting the cells multiple times. cAMP levels in the cell lysates were measured after appropriate dilution using the EIA kit (Amersham) method. Data analysis and EC50 values were determined by using nonlinear regression analysis with Prism Graph-Pad software. […] FIG. 1 illustrates typical results, showing the stimulation of cAMP using the compound of Example 11 in HEK-293/MC4-R cells with comparison to NDP-α-MSH.
Assay for Neutral Antagonist. Compounds with a high affinity for binding to MC4-R membranes but with less potency in terms of cAMP accumulation (EC50>1000 nM) and low response ratio (<0.1) were analyzed for their ability to antagonize the stimulatory effect of the agonist NDP-α-MSH. These studies were carried out in HEK-293 cells expressing MC4-R. Cells were incubated with the compounds in the presence of the agonist NDP-α-MSH and the extent of antagonism was measured by the decrease in intracellular cAMP concentrations. Screening the compounds for antagonist activity was performed at a single concentration of NDP-α-MSH (1.0 nM) over a compound concentration range of 0.5-5000 nM.
Experimental details were similar to the analysis for agonistic activity described above. Briefly, cells were pre-incubated for 30 minutes with the test compounds at concentrations between 0.5 nM and 5000 nM. The cells were then stimulated with NDP-α-MSH at a concentration of 1 nM for 1 hour. For Schild's analysis, the interactions were studied using at least 3 concentrations of the compounds, separated by a log unit, over a full range of the agonist (0.005-5000 nM). cAMP levels were measured in the cell lysates after appropriate dilution. Nonlinear regression analysis with Prism Graph-Pad software was used for Schild analysis and to obtain EC50 values. pA2 values were derived from the Schild plot of the data.

MC1-R = target: T4, MC1-R; experiment: Competitive inhibition assay using [I125]-NDP-α-MSH, MC1-R membranes; type: binding, mouse; conditions: for Inhibition at 1 μM (NDP-α-MSH) MC1-R: 1 μM compound
T4 construct: other: 1 μM compound
Protocol: as §1, §2

[4] = MC4-R membranes, Table 1, read-out: Ki (nM) I125-AgRP
[5] = cAMP assay, read-out: EC50 (nM) at MC4-R

Row | Compound | Ki (hMC3-R) | Ki (hMC4-R [1]; MC4-R membranes, Table 1, read-out: Ki (nM) I125-NPD-α-MSH) | attenuation of binding of α-MSH and AgRP to MC4-R (hMC4-R [1]) | Ki (hMC4-R [1]; read-out: Ki (nM) (NDP-α-MSH) MC4-R) | Ki (hMC5-R) | Inhibition at 1 μM (AgRP) MC4-R (hMC4-R [2]) | Ki (hMC4-R [2]; [4]) | Ki (hMC4-R [2]; read-out: Ki (nM) (AgRP) MC4-R) | functional status (pAg, Ag, Antag, Inactive) (hMC4-R [3]; MC4-R) | EC50 (hMC4-R [3]; MC4-R, Table 1 in μM, read-out: EC50) | intrinsic activity at MC4-R (hMC4-R [3]) | functional status at MC4-R (hMC4-R [3]; cAMP assay) | EC50 (hMC4-R [3]; [5]) | Ki (MC1-R) | Inhibition at 1 μM (NDP-α-MSH) MC1-R (MC1-R) | pEC50 (hMC4-R [3]; MC4-R, read-out: EC50)
1 | 2-naphthylacetyl-1-amino-1-cyclohexane-carbonyl-D-Phe(4-Cl)-Arg-Trp-NH2 [Example 25] | 453 nM | 40 nM | attenuate the binding of both α-MSH and AgRP to MC4-R | 40 nM | 300 nM | 91% | 50 nM | 50 nM | pAg (“pAg” means partial agonist) | > 1 µM | 0.2 | partial agonist (intrinsic activity between 0.1 (10%) and 0.7 (70%) is classified as a partial agonist) | > 1 µM | – | – | –
2 | NCCCC[C@H]1C(=O)N(CCc2ccc3ccccc3c2)CCN1C(=O)[C@@H](Cc1ccc(Cl)cc1Cl)NC(=O)[C@@H]1CC[C@H](c2ccccc2)N1 [Example 19, (2S,5R)-5-Phenyl-pyrrolidine-2-carboxylic acid [(R)-2-[(S)-2-(4-amino-butyl)-4-(2-naphthalen-2-yl-ethyl)-3-oxo-piperazin-1-yl]-1-(2,4-dichloro-benzyl)-2-oxo-ethyl]-amide] | 855 nM | – | attenuate the binding of both α-MSH and AgRP to MC4-R | – | – | 95% | 63 nM | 63 nM | pAg (“pAg” means partial agonist) | – | 0.19 and 0.2 | – | 0.959 µM | 1370 nM | 0% | 6.02
3 | N=C(N)NCCC[C@H]1C(=O)N2C(CC[C@@H]2COc2ccc3ccccc3c2)N1C(=O)[C@@H](Cc1ccc(Cl)cc1Cl)NC(=O)[C@@H]1CC[C@H](c2ccccc2)N1 (stereo partly drawn) [Example 20, (2S,5R)-5-Phenyl-pyrrolidine-2-carboxylic acid {(R)-1-(2,4-dichloro-benzyl)-2-[(2S,5R)-2-(3-guanidino-propyl)-5-(naphthalen-2-yloxymethyl)-3-oxo-hexahydro-pyrrolo[1,2-a]imidazol-1-yl]-2-oxo-ethyl}-amide] | 312 nM | – | – | – | – | 99% | 23 nM | 23 nM | Inactive | – | – | inactive | – | 1040 nM | 16% | < 6.00
